Measured values published in patent US10654816B2, “Compounds and compositions for treating conditions associated with NLRP activity” (NOVARTIS INFLAMMASOME RESEARCH, INC., priority 2017, dated 2020).

System: IL-1β production in PMA-differentiated THP-1 cells
Assay: IL-1β production in PMA-differentiated THP-1 cells stimulated with gramicidin (hTHP-1 assay, HTRF readout; Procedures 1-3)
Type: cell-based, human
Conditions: Homo sapiens, THP-1, hTHP-1 assay containing 2% fetal bovine serum; average; class symbols; read-out: hTHP-1 IC50 (Average IC50 of compounds in hTHP-1 assay)
Procedure, shortened: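 PMA-differentiated (20 ng/ml, 16-18 h) THP-1 cells in RPMI with 2% FBS, 50,000 cells/well, preincubated 1 h with compound (final 0.0017-100 μM, 0.37% DMSO), then stimulated with 5 μM gramicidin for 2 h. IL-1β in cell-free supernatant measured by HTRF (620/668 nm).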

IC50 [nM]	Structure (SMILES)
200 to 1000	CC(C)(O)c1ccc(S(N)(=O)=NC(=O)Nc2c3c(c(F)c4c2CCC4)CCC3)c(F)c1 (centres unmarked) [Example 47, 2-fluoro-N′-(8-fluoro-1,2,3,5,6,7-hexahydro-s-indacen-4-ylcarbamoyl)-4-(2-hydroxypropan-2-yl)benzenesulfonimidamide]
1000 to 5000	CC(C)c1cc(OC(F)F)cc(C2CC2)c1NC(=O)N=S(N)(=O)c1ccc(C(C)(C)O)cc1F (centres unmarked) [Example 54]
200 to 1000	CC(C)(O)c1ccc(F)c(S(N)(=O)=NC(=O)Nc2c3c(c(F)c4c2CCC4)CCC3)c1 (centres unmarked) [Example 55, 2-fluoro-N′-((8-fluoro-1,2,3,5,6,7-hexahydro-s-indacen-4-yl)carbamoyl)-5-(2-hydroxypropan-2-yl)benzenesulfonimidamide]
40 to 200	CC(C)c1cc(C#N)cc(C(C)C)c1NC(=O)N=S(N)(=O)c1sc(C(C)(C)O)cc1F (centres unmarked) [Example 65, N′-((4-cyano-2,6-diisopropylphenyl)carbaoyl)-3-fluoro-5-(2-hydroxypropan-2-yl)thiophene-2-sulfonimidamide]
5000 to 30000	CC(C)c1cc(C#N)cc(C(C)C)c1NC(=O)N=S(N)(=O)c1cc(C(C)(C)O)cc(C(C)(C)O)c1 (centres unmarked) [Example 66, N′-((4-cyano-2,6-diisopropylphenyl)carbaoyl)-3,5-bis(2-hydroxypropan-2-yl)benzenesulfonimidamide]
1000 to 5000	CC(C)c1cc(C#N)cc(C(C)C)c1NC(=O)N=S(N)(=O)c1ccc(C(C)(C)O)c(CO)c1 (centres unmarked) [Example 68, N′-((4-cyano-2,6-diisopropylphenyl)carbaoyl)-3-(hydroxymethyl)-4-(2-hydroxypropan-2-yl)benzenesulfonimidamide]

The remaining lines, values behind:

Structure (SMILES)	IC50 [nM]
CN(C)Cc1cccc(S(N)(=O)=NC(=O)Nc2c3c(cc4c2CCC4)CCC3)c1 (centres unmarked) [Example 51, 3-((dimethylamino)methyl)-N′-(1,2,3,5,6,7-hexahydro-s-indacen-4-ylcarbamoyl)benzene-sulfonimidamide]	1000 to 5000
CC(C)c1cc(F)cc(C(C)C)c1NC(=O)N=S(N)(=O)c1cccc(S(C)(=O)=O)c1 (centres unmarked) [Example 63, N′-((4-fluoro-2,6-diisopropylphenyl)carbaoyl)-3-(methylsulfonyl)benzenesulfonim idamide]	1000 to 5000
CC(C)(O)c1nc(CO)c(S(N)(=O)=NC(=O)Nc2c3c(c(C#N)c4c2CCC4)CCC3)s1 (centres unmarked) [Example 69, N′-((8-cyano-1,2,3,5,6,7-hexahydro-s-indacen-4-yl)carbamoyl)-4-(hydroxymethyl)-2-(2-hydroxypropan-2-yl)thiazole-5-sulfonimidamide]	1000 to 5000
CC(C)c1cc(C#N)cc(C(C)C)c1NC(=O)NS(=N)(=O)c1sc(C(C)(C)O)nc1CO (centres unmarked) [Example 70, N-((4-cyano-2,6-diisopropylphenyl)carbaoyl)-4-(hydroxymethyl)-2-(2-hydroxypropan-2-yl)thiazole-5-sulfonimidamide]	1000 to 5000
CC(C)c1cc(C#N)cc(C(C)C)c1NC(=O)N=S(N)(=O)c1ccc(S(C)(=O)=O)cc1 (centres unmarked) [Example 73, N′-((4-cyano-2,6-diisopropylphenyl)carbaoyl)-4-(methylsulfonyl)benzenesulfonim idamide]	1000 to 5000
